# Laboratory results from US3994925A, “Salt of the silymarin group with aminopolyhydroxy alcohols” (Dr. Madaus & Co., priority 1973, dated 1976).
# System: proseodymium nitrate liver damage
# Conditions: serum, 72 hours after 14 mg/kg praseodymnitrate i.v.; SMG1 140.5 mg/kg i.v. three days, MG1 40.5 mg/kg
# Protocol: The liver-protectiveeffect of the SMG1 was tested on white rats, in that experimentally produced liver damage was antagonized by SMG1 treatment. The rats were injected with the SMG1- or MG1-dosages in 5 ml 0.9% NaCl solution, to which 4% of PVP (M.W. about 10,000) was added per kg of body weight. A dosage of 140.5 mg/kg SMG1 corresponds to 100 mg Silymarin and 40.5 mg 1-methylamino-glucose. When the test animals received 140.5 mg/kg SMG1, the control animals were treated with the equivalent dosage of 1-methylamino glucose, i.e. 40.5 mg/kg.
# In another series of tests, antagonization of proseodymium nitrate liver damage by SMG1, measured by the reaction of the serum enzyme glutamate-oxalacetate-transaminase (GOT), glutamate-pyruvate-transaminase (GPT), sorbital-dehydrogenase (SDH) and alkaline phosphatases (AP), was employed as a measure of efficacy of the instant materials. […] The test animals, male Wistar rats weighing approximately 200 g, were treated for three days with 140.5 mg/kg SMG1 i.v. On the first testing day, all rats were damaged i.v. with 14 mg/kg praseodymnitrate one hour after the SMG1- or MG1- injection.
substance,measurement,value
1-methylamino glucose [1-methylamino-glucose],AP (alkaline phosphatase),168.0 mU/ml
same,GOT,360.6 mU/ml
same,GPT,118.4 mU/ml
same,SDH,32.0 mU/ml
